According to patent publication US7575640B2, “Method for producing sugar and sugar-containing products from sugar-containing plant raw materials” (Zuckerforschung Tulln Gesellschaft m.b.H., priority 2003, dated 2009):
In brackets after ≈: the same amount, converted by molar mass. Structures can show the parent of a compound that is named as a salt. Where two headings read alike, the source gives them in different places.

What was measured:
thermophilic bacteria [1] = assay: determination of MIC by stepwise addition until stabilization of the pH, 65° C.; type: cell-based, thermophilic bacteria (mixed culture)
Procedure: To illustrate the antimicrobial activity within the scope of sugar production, examples are carried out with […] compounds by way of example. […] Upon the growth of thermophilic bacteria, the pH drops progressively. This indicates a microorganism-caused acid formation. […] The fatty acid compounds used in this Example are myristic acid and lauric acid, and their potassium salts, respectively. In this case, the acids were used both individually and in a 1:1 mixture, the salts were exclusively used in a 1:1 mixture.

[2] = system: thermophilic microorganisms; assay: germ-inhibiting activity (acid formation) under sugar production conditions, general statements; type: cell-based
Procedure: If at 35-45° C., i.e. at those temperatures, at which it is usually worked in microbiology, a culture medium is inoculated with non-sterile crude juice from a sugar beet extraction, in most cases it is difficult to stop, by the addition of fatty acids, an acid formation recognizable by a drop in the pH (particularly in mixed cultures in which insensitive microorganism can prevail). On the other hand, the acid formation at 55° C. and 65° C. is blocked by fatty acids, depending on the chain lengths, at concentrations of from 4 to 40 mg/l over a period of time of from 1 to 10 hours. While a maximum of C11-C12 is indicated for the effects observed at normal temperature (Ullmann 1975), for thermophilic microorganisms at the higher temperature the effective maximum lies at C14 (myristic acid)
(§1) If a sugar-containing substrate, e.g. a sugar-containing liquid culture medium, as it is common in microbiology, is either non-sterilized or incubated after inoculation with a bacterial strain, an acid formation will occur which is the easiest to recognize by a drop in the pH. The same phenomenon will occur when incubating normal sugar-containing plant juices, e.g. beet juice. In an industrial process, e.g. in the recovery of sugar juice from sugar beets, a drop in the pH by degradation of sugar means a loss of sugar and a need for an alkalizing agent. Moreover, a drop in the pH with an increase in the germ content in the substrate often is associated with an unpleasant gas and nitrite formation. This arrangement also forms an efficient system for determining the germ-inhibiting activity of substances within the scope of the sugar production process.
If during such an acid formation caused by thermophilic microorganisms at higher temperatures, for instance a solution of fatty acid compounds according to the invention is added, the acid formation and the drop in the pH associated therewith will stop starting from a certain concentration of 10 ppm. Thus, the disadvantages associated with the acid formation can be avoided by the addition of myristic acid, e.g., to a sugar-containing substrate. […]

thermophilic bacteria [3] = assay: pH drop (acid formation) in liquid culture medium inoculated with crude juice from sugar beet extraction, 65° C.; type: cell-based, thermophilic bacteria (mixed culture); conditions: for behavior in such an example (effect on pH drop): as Example 2, compared with palmitic acid (basic effect lasting only a very short period); for concentration at which the pH drop is stopped / effect reached: additions of 10 mg/l
Procedure: as §1, with “formation.” for “formation. This arrangement also forms an efficient system for determining the germ-inhibiting activity of substances within the scope of the sugar production process.”
A liquid culture medium, as commonly used in microbiology and consisting of 10 g of Bacto-peptone, 5 g of meat extract, 5 g of yeast extract, 1 g of glucose, 1 g of K2HPO4, 0.1 g of MgSO4*7H2O and 0.01 g of FeSO4*7H2O per liter of distilled water, is sterilized in conventional manner for 20 min at 120° C. and inoculated, in a vessel kept at a temperature of 65° C., with 20 ml of crude juice from a large-scale sugar beet extraction, wherein the pH is registered on a recorder. Upon the growth of thermophilic bacteria, the pH drops progressively. This indicates a microorganism-caused acid formation.
A mixed culture according to Example 1 is prepared.

[4] = dissolved in ethanol, 10 mg/l steps, maximum 150 mg/l, 65° C., read-out: Min. Inhibitory Conc. (MIC)
[5] = Time 4.50 h, 3×10 mg/l added between pH 6.74 and 6.49, 65° C.
[6] = Time 4.75 h, total 30 mg/l, 65° C.
[7] = Time 5 h, total 30 mg/l, 65° C.
[8] = Time 6 h, total 30 mg/l, 65° C.
[9] = Time 7 h, total 30 mg/l, 65° C.
[10] = Time 8 h, total 30 mg/l, 65° C.
[11] = Time 9 h, total 30 mg/l, 65° C.
[12] = Time 10 h, total 30 mg/l, 65° C.
[13] = Time 6 h, 10 mg/l as potassium salt added at pH 6.46 (5 h), 65° C.
[14] = Time 7 h, 10 mg/l as potassium salt added at pH 6.46 (5 h), 65° C.
[15] = Time 8 h, 10 mg/l as potassium salt added at pH 6.46 (5 h), 65° C.
[16] = Time 9 h, 10 mg/l as potassium salt added at pH 6.46 (5 h), 65° C.
[17] = Time 11 h, 10 mg/l as potassium salt added at pH 6.46 (5 h), 65° C.
[18] = Time 13 h, 10 mg/l as potassium salt added at pH 6.46 (5 h), 65° C.
[19] = Time 15 h, 10 mg/l as potassium salt added at pH 6.46 (5 h), 65° C.
[20] = Time 17 h, 10 mg/l as potassium salt added at pH 6.46 (5 h), 65° C.
[21] = Time 6.00 h, 10 mg/l added at pH 6.52 (5.10 h), 65° C.
[22] = Time 6.50 h, 10 mg/l added at pH 6.52 (5.10 h), 65° C.
[23] = Time 7 h, 10 mg/l added at pH 6.52 (5.10 h), 65° C.
[24] = Time 8 h, 10 mg/l at pH 6.52 and 4×10 mg/l between pH 6.49 and 6.36, 65° C.
[25] = Time 9 h, total 50 mg/l, 65° C.

`CCCCCCCCCCCCCC(=O)OCC` [Ethyl-Myristate, reference compound] was tested, and the MIC (thermophilic bacteria [1]; [4]) was over 150 µg/mL.

With `CCCCCCCCCCCCCCO` [Myristyl Alcohol, 1-tetradecanol] the MIC (thermophilic bacteria [1]; [4]) was 10 µg/mL (≈ 46.6 µM) and the effective concentration [2] was at most 10 ppm.

`CCCCCCCCCCCCCC(=O)OCCC` [Propyl-Myristate, reference compound] gave an MIC (thermophilic bacteria [1]; [4]) of over 150 µg/mL.

With `CCO` [alcohol] the “amount that impairs such a culture” value (thermophilic bacteria [3]; mixed culture, 65° C.) was 40-60 ml alcohol per liter culture liquid.

In the case of `CCCCCCCCCCCCCCCCCCCCCC(=O)O` [behenic acid, reference compound], the “behavior in such an example (effect on pH drop)” value (“behavior in such an example” below) (thermophilic bacteria [3]) is reported as “does not exhibit any effect”.

For `CCCCCCCCCCCC(=O)O` [lauric acid], the MIC (thermophilic bacteria [1]; dissolved in ethanol, steps of 2 mg/l, read-out: Min. Inhibitory Conc. (MIC)) was 18 µg/mL (≈ 89.9 µM), the MIC (thermophilic bacteria [1]; text summary of Example 9, read-out: MIC (concentration successfully used)) was 18000 µg/mL (≈ 89900 µM) and the “effect on pH drop” value (thermophilic bacteria [3]; 20 mg/l (two additions), mixed culture, 65° C.) was “does not have any effect”. For the same molecule, the pH (thermophilic bacteria [3]; [5]) was 6.49, the ΔpH/h (thermophilic bacteria [3]; [5]) was 1.00 and the pH (thermophilic bacteria [3]; [6]) was 6.49. The ΔpH/h (thermophilic bacteria [3]; [6]) was 0.00, the pH (thermophilic bacteria [3]; [7]) was 6.49 and the ΔpH/h (thermophilic bacteria [3]; [7]) was 0.00. For the same molecule, the pH (thermophilic bacteria [3]; [8]) was 6.50, the ΔpH/h (thermophilic bacteria [3]; [8]) was −0.01 and the pH (thermophilic bacteria [3]; [9]) was 6.51. The ΔpH/h (thermophilic bacteria [3]; [9]) was −0.01, the pH (thermophilic bacteria [3]; [10]) was 6.52 and the ΔpH/h (thermophilic bacteria [3]; [10]) was −0.01. The pH (thermophilic bacteria [3]; [11]) was 6.52, the ΔpH/h (thermophilic bacteria [3]; [11]) was 0.00 and the pH (thermophilic bacteria [3]; [12]) was 6.53. For the same molecule, the ΔpH/h (thermophilic bacteria [3]; [12]) was −0.01 and the “concentration at which the pH drop is stopped / effect reached” value (thermophilic bacteria [3]; mixed culture, 65° C.) was 30 mg/l.

In the case of `CCCCCCCCCCCCCC(=O)OC` [methyl myristate], the inhibitory concentration [2] is reported as “approximately 100 mg/ml”.

In the case of `CCCCCCCCCCCCCC(=O)O` [myristic acid as potassium salt, myristic acid], the “duration of effectiveness (pH drop stopped)” value (thermophilic bacteria [3]; 10 mg/l, mixed culture, 65° C.) is reported as “at least 12 h”, the “effect on pH drop” value (thermophilic bacteria [3]; 10 mg/l, mixed culture, 65° C.) is reported as “suddenly and lastingly be stopped” and the pH (thermophilic bacteria [3]; [13]) is reported as 6.46. For the same molecule, the ΔpH/h (thermophilic bacteria [3]; [13]) was 0.00, the pH (thermophilic bacteria [3]; [14]) was 6.46 and the ΔpH/h (thermophilic bacteria [3]; [14]) was 0.00. The pH (thermophilic bacteria [3]; [15]) was 6.47, the ΔpH/h (thermophilic bacteria [3]; [15]) was −0.01 and the pH (thermophilic bacteria [3]; [16]) was 6.46. The ΔpH/h (thermophilic bacteria [3]; [16]) was 0.01, the pH (thermophilic bacteria [3]; [17]) was 6.46 and the ΔpH/h (thermophilic bacteria [3]; [17]) was 0.00. It also gave a pH (thermophilic bacteria [3]; [18]) of 6.46, a ΔpH/h (thermophilic bacteria [3]; [18]) of 0.00 and a pH (thermophilic bacteria [3]; [19]) of 6.45. For the same molecule, the ΔpH/h (thermophilic bacteria [3]; [19]) was 0.00, the pH (thermophilic bacteria [3]; [20]) was 6.45 and the ΔpH/h (thermophilic bacteria [3]; [20]) was 0.00.

For `CCCCCCCC/C=C\CCCCCCCC(=O)O` [oleic acid], the “behavior in such an example” value (thermophilic bacteria [3]) was “Quite similar”.

In the case of `CCCCCCCCCCCCCCCC(=O)O` [palmitic acid], the “duration of effectiveness (pH drop stopped)” value (thermophilic bacteria [3]; 10 mg/l, mixed culture, 65° C.) is reported as 1.5-2 h, the “effect on pH drop” value (thermophilic bacteria [3]; 10 mg/l, mixed culture, 65° C.) is reported as “immediately completely stopped” and the pH (thermophilic bacteria [3]; [21]) is reported as 6.53. For the same molecule, the ΔpH/h (thermophilic bacteria [3]; [21]) was −0.01, the pH (thermophilic bacteria [3]; [22]) was 6.53 and the ΔpH/h (thermophilic bacteria [3]; [22]) was 0.00. The pH (thermophilic bacteria [3]; [23]) was 6.49, the ΔpH/h (thermophilic bacteria [3]; [23]) was 0.08 and the pH (thermophilic bacteria [3]; [24]) was 6.36. It also gave a ΔpH/h (thermophilic bacteria [3]; [24]) of 0.13, a pH (thermophilic bacteria [3]; [25]) of 6.29 and a ΔpH/h (thermophilic bacteria [3]; [25]) of 0.07. The pH drop (thermophilic bacteria [3]; renewed addition up to total 50 mg/l, retarded from 0.13) was 0.07 pH units per hour.

In the case of `C/C=C/C=C/C(=O)O` [sorbic acid, reference compound], the “concentration at which the pH drop is stopped / effect reached” value (thermophilic bacteria [3]; mixed culture, 65° C.) is reported as over 150 mg/l.

In the case of `CCCCCCCCCCCCCCCCCC(=O)O` [stearic acid], the “behavior in such an example” value (thermophilic bacteria [3]) is reported as “Quite similar”.

With `CCCCCCCCCCCCCCCCCCO` [stearyl alcohol] the effective concentration [2] was “markedly higher concentrations have to be employed”.

For `CCCCCCCCCCC(=O)O` [undecanoic acid], the “concentration at which the pH drop is stopped / effect reached” value (thermophilic bacteria [3]; mixed culture, 65° C.) was 40 mg/l.
